This is an account of results in US10894817B2, “Fatty acid modified urocortin-2 analogs for the treatment of diabetes and chronic kidney disease” (priority 2016, dated 2021).

Where “and” joins values, the source holds several entries; their conditions need not be identical. Equal values may be shown once. Starred links: 1 amine or outer side, 2 acyl side, 3 side chain; linkers in the order of their positions; H or OH if unused. Non-standard residues stand in square brackets, D forms with d. Residues, ends and D or L forms follow the SMILES beside them. Groups on a side chain read outwards from the residue. *: point of attachment. C20 diacid = O=C(O)CCCCCCCCCCCCCCCCCCC(=O)*; C18 diacid = O=C(O)CCCCCCCCCCCCCCCCC(=O)*; γGlu = O=C(O)[C@H](CCC(=O)[*:2])N[*:1]; NMeI = CC[C@H](C)[C@H](NC)C(=O)O; AEEA = NCCOCCOCC(=O)O

The target of one data set is T1, human CRHR2b (Homo sapiens, UniProt Q13324).
T1 construct: expressed in transfected cells; host or cells: Chinese Hamster Ovary (CHO) cells, transient transfection
T1 sequence (Q13324 1-438 isoform Q13324-2): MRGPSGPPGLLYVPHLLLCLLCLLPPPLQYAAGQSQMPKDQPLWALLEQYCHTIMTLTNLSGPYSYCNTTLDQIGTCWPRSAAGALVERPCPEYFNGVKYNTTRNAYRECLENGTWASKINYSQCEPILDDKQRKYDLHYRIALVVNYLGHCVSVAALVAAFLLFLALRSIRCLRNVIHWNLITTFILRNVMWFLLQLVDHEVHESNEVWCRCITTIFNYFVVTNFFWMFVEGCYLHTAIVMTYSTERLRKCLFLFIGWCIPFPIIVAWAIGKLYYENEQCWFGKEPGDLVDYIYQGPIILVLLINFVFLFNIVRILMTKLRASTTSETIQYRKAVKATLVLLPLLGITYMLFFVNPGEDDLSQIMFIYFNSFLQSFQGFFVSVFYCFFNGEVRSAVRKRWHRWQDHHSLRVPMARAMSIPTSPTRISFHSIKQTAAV
Description: human CRHR2b cell-based cAMP assay. The following applies: cAMP assay, CHO cells transfected with human CRHR2b; mean ± SEM of runs; read-out: hCRHR2b Average EC50. An outline of the steps: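 ED50 values are means ± SEM over several runs, curve-fitted from cAMP in pmol, calibrated against unlabeled-cAMP standards. Detection was HTRF competition, ratio 665/620 nm, after 30 min agonist exposure at 37 °C.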
On the technique in general: cAMP levels reflect the balance of adenylyl cyclase and phosphodiesterase activity.

Data set [1] is described as follows: Pharmacokinetics, single subcutaneous dose, rats. The conditions noted are these: for half-life: T1/2, male Sprague Dawley rats.
Description: Plasma concentrations of compounds were determined by LC/MS methods. Each method measured the intact compound; peptide plus linked time extension. For each assay, the compound and an analog, used as an internal standard (IS), were extracted from 100% mouse, rat or monkey plasma (25 μl) using acetonitrile. Two distinct layers were formed upon centrifugation with the compound and the IS located in the supernatant layer. An aliquot of the supernatant (80 μl) was transferred to a Thermo Protein Precipitation Plate with water (150 μl) and formic acid (25 μl) followed by mixing. A final 31% acetonitrile in 10% formic acid sample (10 μl) was loaded onto a Supelco Analytical Discovery BIO Wide Pore C5-3 column (5 cm×1 mm, 3 μm). The column effluent was directed into a Thermo Q-Exactive mass spectrometer for detection and quantitation.
Male Sprague Dawley rats were administered a single subcutaneous dose (50 or 150 nmol/kg) of a compound described herein in 20 mM Tris-HCl Tris Buffer (pH 8) at a volume of 0.26 or 0.77 mL/kg.
Where [2] appears, read: male, Sprague Dawley, rat, plasma, sc, 150 nmol/kg.
Setting [3] is: male Sprague Dawley rats, single 50 nmol/kg s.c., individual animal.
The mark [4] stands for this setting: male Sprague Dawley rats, single 150 nmol/kg s.c., individual animal.
The mark [5] stands for this setting: male, Sprague Dawley, rat, plasma, sc, 50 nmol/kg.
[6] abbreviates: male, Sprague Dawley, rat, plasma, sc, 50 nmol/kg, male Sprague Dawley rats, single 50 nmol/kg s.c., Mean.
The mark [7] stands for this setting: male, Sprague Dawley, rat, plasma, sc, 50 nmol/kg, male Sprague Dawley rats, single 50 nmol/kg s.c., individual animal.
Where [8] appears, read: male, Sprague Dawley, rat, plasma, sc, 150 nmol/kg, male Sprague Dawley rats, single 150 nmol/kg s.c., Mean.
Setting [9] is: male, Sprague Dawley, rat, plasma, sc, 150 nmol/kg, male Sprague Dawley rats, single 150 nmol/kg s.c., individual animal.

As a reminder, the EC50 is the concentration giving half of the maximal effect. Usually AUC(0-inf) stands for total exposure, with the tail of the curve extrapolated. The low end stands for low exposure, the high end for high exposure. As usually defined, the Cmax is the highest concentration seen after dosing. By Tmax is commonly meant the time from dosing to the highest level. Regarding `CC[C@H](C)[C@H](NC(C)=O)C(=O)N[C@H](C(=O)N[C@@H](CC(C)C)C(=O)N[C@@H](CO)C(=O)N[C@@H](CC(C)C)C(=O)N[C@@H](CC(=O)O)C(=O)N[C@H](C(=O)N1CCC[C@H]1C(=O)N[C@H](C(=O)NCC(=O)N[C@@H](CC(C)C)C(=O)N[C@@H](CC(C)C)C(=O)N[C@@H](CCC(N)=O)C(=O)N[C@H](C(=O)N[C@@H](CC(C)C)C(=O)N[C@@H](CC(C)C)C(=O)N[C@@H](CCC(=O)O)C(=O)N[C@@H](CCC(N)=O)C(=O)N[C@@H](CCC(=O)O)C(=O)N[C@@H](CCCCN)C(=O)N[C@@H](CCC(N)=O)C(=O)N[C@@H](CCC(=O)O)C(=O)N[C@@H](CCCCN)C(=O)N[C@@H](CCC(=O)O)C(=O)N[C@@H](CCCCN)C(=O)N[C@@H](CCC(N)=O)C(=O)N[C@@H](CCC(N)=O)C(=O)N[C@@H](C)C(=O)N[C@@H](CCCCNC(=O)COCCOCCNC(=O)COCCOCCNC(=O)CC[C@H](NC(=O)CC[C@H](NC(=O)CCCCCCCCCCCCCCCCCCC(=O)O)C(=O)O)C(=O)O)C(=O)N[C@H](C(=O)N[C@@H](CC(N)=O)C(=O)N[C@@H](C)C(=O)N[C@@H](CCC(N)=O)C(=O)N[C@H](C(=O)N[C@@H](CC(C)C)C(=O)N[C@@H](C)C(=O)N[C@@H](CCC(N)=O)C(=O)N[C@H](C(N)=O)C(C)C)[C@@H](C)CC)[C@@H](C)O)[C@@H](C)CC)[C@@H](C)CC)C(C)C)C(C)C` [Example 2] (Ac-IVLSLDVPIGLLQILLEQEKQEKEKQQAK([AEEA-AEEA-γGlu-γGlu-C20 diacid])TNAQILAQV-NH2), the EC50 at human CRHR2b worked out at 1.2 ± 0.52 nM. In data set [1] (setting [2]), the total exposure AUC(0-inf) turned out to be 32.3 µM·h and the peak level (Cmax) was 429 nM. In addition, the Tmax in data set [1] (rat, in vivo, sc, 150 nmol/kg, male Sprague Dawley rats, single 150 nmol/kg s.c., Mean) is 24 h. Besides, the Tmax in data set [1] (rat, in vivo, sc, 150 nmol/kg, male Sprague Dawley rats, single 150 nmol/kg s.c., individual animal) was found to be 24 h.
A word on the CL/F: it is the apparent clearance, not corrected for the fraction that reaches the circulation. The term half-life denotes how long it takes for the measured level to halve. Low readings indicate rapid decline, high ones slow decline. Turning to `CC[C@H](C)[C@H](NC)C(=O)N[C@H](C(=O)N[C@@H](CC(C)C)C(=O)N[C@@H](CO)C(=O)N[C@@H](CC(C)C)C(=O)N[C@@H](CC(=O)O)C(=O)N[C@H](C(=O)N1CCC[C@H]1C(=O)N[C@H](C(=O)NCC(=O)N[C@@H](CC(C)C)C(=O)N[C@@H](CC(C)C)C(=O)N[C@@H](CCC(N)=O)C(=O)N[C@H](C(=O)N[C@@H](CC(C)C)C(=O)N[C@@H](CC(C)C)C(=O)N[C@@H](CCC(=O)O)C(=O)N[C@@H](CCC(N)=O)C(=O)N[C@@H](CCC(=O)O)C(=O)N[C@@H](CCCCN)C(=O)N[C@@H](CCC(N)=O)C(=O)N[C@@H](CCC(=O)O)C(=O)N[C@@H](CCCCN)C(=O)N[C@@H](CCC(=O)O)C(=O)N[C@@H](CCCCN)C(=O)N[C@@H](CCC(N)=O)C(=O)N[C@@H](CCC(N)=O)C(=O)N[C@@H](C)C(=O)N[C@@H](CCCCNC(=O)COCCOCCNC(=O)COCCOCCNC(=O)CC[C@H](NC(=O)CC[C@H](NC(=O)CCCCCCCCCCCCCCCCC(=O)O)C(=O)O)C(=O)O)C(=O)N[C@H](C(=O)N[C@@H](CC(N)=O)C(=O)N[C@@H](C)C(=O)N[C@@H](CCC(N)=O)C(=O)N[C@H](C(=O)N[C@@H](CC(C)C)C(=O)N[C@@H](C)C(=O)N[C@@H](CCC(N)=O)C(=O)N[C@H](C(N)=O)C(C)C)[C@@H](C)CC)[C@@H](C)O)[C@@H](C)CC)[C@@H](C)CC)C(C)C)C(C)C` [Example 3] (H-[NMeI]VLSLDVPIGLLQILLEQEKQEKEKQQAK([AEEA-AEEA-γGlu-γGlu-C18 diacid])TNAQILAQV-NH2), the EC50 on human CRHR2b amounted to 2 ± 1.11 nM. The apparent clearance CL/F in data set [1] (setting [3]) was 0.125 mL/min/kg and 0.122 mL/min/kg; in data set [1] (setting [4]), 0.103 mL/min/kg and 0.107 mL/min/kg; in data set [1] (male, Sprague Dawley, rat, plasma, sc, 50 nmol/kg, CL/F, male Sprague Dawley rats, single 50 nmol/kg s.c., Mean), 0.117 mL/min/kg; in data set [1] (male, Sprague Dawley, rat, plasma, sc, 50 nmol/kg, CL/F, male Sprague Dawley rats, single 50 nmol/kg s.c., individual animal) it was 0.103 mL/min/kg; in data set [1] (male, Sprague Dawley, rat, plasma, sc, 150 nmol/kg, CL/F, male Sprague Dawley rats, single 150 nmol/kg s.c., Mean), 0.1 mL/min/kg; in data set [1] (male, Sprague Dawley, rat, plasma, sc, 150 nmol/kg, CL/F, male Sprague Dawley rats, single 150 nmol/kg s.c., individual animal), 0.1 mL/min/kg. For the same molecule, the highest concentration (Cmax) in data set [1] (setting [3]) was 188 nM and 160 nM and 141 nM; in data set [1] (setting [4]) it was 531 nM and 496 nM and 470 nM; in data set [1] (setting [5]), 163 nM; in data set [1] (setting [2]), 499 nM. Moreover, the T1/2 in data set [1] (setting [3]) was 14 h and 17 h. For the same molecule, the area under the curve AUC(0-inf) worked out at 7.17 µM·h in data set [1] (setting [5]) and 24.4 µM·h in data set [1] (setting [2]). Besides, the half-life in data set [1] (male, Sprague Dawley, rat, plasma, sc, 50 nmol/kg, single 50 nmol/kg s.c., Mean) is 16 h; in data set [1] (male, Sprague Dawley, rat, plasma, sc, 50 nmol/kg, single 50 nmol/kg s.c., individual animal), 16 h; in data set [1] (male, Sprague Dawley, rat, plasma, sc, 150 nmol/kg, single 150 nmol/kg s.c., Mean), 16 h; in data set [1] (male, Sprague Dawley, rat, plasma, sc, 150 nmol/kg, single 150 nmol/kg s.c., individual animal), 16 h. The time of peak concentration (Tmax) in data set [1] (setting [6]) worked out at 20 h; in data set [1] (setting [7]), 12 h; in data set [1] (setting [8]) it was 24 h; in data set [1] (setting [9]) it was 24 h.
For `CC[C@H](C)[C@H](NC)C(=O)N[C@H](C(=O)N[C@@H](CC(C)C)C(=O)N[C@@H](CO)C(=O)N[C@@H](CC(C)C)C(=O)N[C@@H](CC(=O)O)C(=O)N[C@H](C(=O)N1CCC[C@H]1C(=O)N[C@H](C(=O)NCC(=O)N[C@@H](CC(C)C)C(=O)N[C@@H](CC(C)C)C(=O)N[C@@H](CCC(N)=O)C(=O)N[C@H](C(=O)N[C@@H](CC(C)C)C(=O)N[C@@H](CC(C)C)C(=O)N[C@@H](CCC(=O)O)C(=O)N[C@@H](CCC(N)=O)C(=O)N[C@@H](CCC(=O)O)C(=O)N[C@@H](CCCCN)C(=O)N[C@@H](CCC(N)=O)C(=O)N[C@@H](CCC(=O)O)C(=O)N[C@@H](CCCCN)C(=O)N[C@@H](CCC(=O)O)C(=O)N[C@@H](CCCCN)C(=O)N[C@@H](CCC(N)=O)C(=O)N[C@@H](CCC(N)=O)C(=O)N[C@@H](C)C(=O)N[C@@H](CCCCNC(=O)COCCOCCNC(=O)COCCOCCNC(=O)CC[C@H](NC(=O)CC[C@H](NC(=O)CCCCCCCCCCCCCCCCCCC(=O)O)C(=O)O)C(=O)O)C(=O)N[C@H](C(=O)N[C@@H](CC(N)=O)C(=O)N[C@@H](C)C(=O)N[C@@H](CCC(N)=O)C(=O)N[C@H](C(=O)N[C@@H](CC(C)C)C(=O)N[C@@H](C)C(=O)N[C@@H](CCC(N)=O)C(=O)N[C@H](C(N)=O)C(C)C)[C@@H](C)CC)[C@@H](C)O)[C@@H](C)CC)[C@@H](C)CC)C(C)C)C(C)C` [Example 4] (H-[NMeI]VLSLDVPIGLLQILLEQEKQEKEKQQAK([AEEA-AEEA-γGlu-γGlu-C20 diacid])TNAQILAQV-NH2), the concentration giving a half-maximal response (EC50) at human CRHR2b was determined as 1.85 ± 0.51 nM. Moreover, the maximum concentration (Cmax) in data set [1] (setting [3]) is 126 nM and 150 nM and 127 nM; in data set [1] (setting [4]) it was 356 nM and 527 nM and 482 nM; in data set [1] (setting [5]), 134 nM; in data set [1] (setting [2]), 455 nM. For the same molecule, the area under the curve AUC(0-inf) in data set [1] (setting [5]) was found to be 7.51 µM·h; in data set [1] (setting [2]) it was 25.1 µM·h. For the same molecule, the Tmax in data set [1] (setting [6]), in data set [1] (setting [7]), in data set [1] (setting [8]) and in data set [1] (setting [9]) was 24 h throughout.
